Assay results reported in PubChem BioAssay AID192 (DTP/NCI, 2004).
Several values for one entry are separate records, joined by “and”; a condition that tells them apart may be missing. Equal values may be shown once. Toxic doses and inconclusive results are not listed. Rule for the calls: active = survival T/C of 150% or more; inactive = T/C below 125% in these data.

Test system: BDF1 mice, B16 melanoma ip, median survival T/C
Experiment: NCI In Vivo Anticancer Drug Screen. Data for tumor model B16 Melanoma (intraperitoneal) in B6D2F1 (BDF1) mice
Conditions: endpoint: median survival time, higher = longer survival
Outline: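 Tumor-bearing mice received test compound or vehicle. Survival or tumor size was then measured in both groups. The treated-group figure was divided by the control-group figure.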

[1] = dose: 100.0 mg/kg/injection, schedule: Q04DX003 (ip), vehicle: saline with Tween-80
[2] = dose: 12.5 mg/kg/injection, schedule: Q01DX009 (ip), vehicle: saline
[3] = dose: 25.0 mg/kg/injection, schedule: Q01DX009 (ip), vehicle: saline
[4] = dose: 50.0 mg/kg/injection, schedule: Q01DX009 (ip), vehicle: saline
[5] = dose: 100.0 mg/kg/injection, schedule: Q01DX009 (ip), vehicle: saline

Measured: T/C

S=C1NC(c2ccccc2)NC(c2ccccc2)S1 (stereo not drawn)
inactive: dose: 100.0 mg/kg/injection, schedule: Q01DX009 (ip), vehicle: other 100 % of control | dose: 200.0 mg/kg/injection, schedule: Q01DX009 (ip), vehicle: other 94 % of control | dose: 400.0 mg/kg/injection, schedule: Q01DX009 (ip), vehicle: other 86 % of control

O=C(O)C1C2CCC1C2 (stereo not drawn)
inactive: dose: 25.0 mg/kg/injection, schedule: Q04DX003 (ip), vehicle: saline with Tween-80 103 % of control | dose: 50.0 mg/kg/injection, schedule: Q04DX003 (ip), vehicle: saline with Tween-80 102 % of control | [1] 97 % of control and 102 % of control

S=P(NCCS)(N1CC1)N1CC1
inactive: dose: 6.25 mg/kg/injection, schedule: Q01DX009 (ip), vehicle: saline with Tween-80 95 % of control | dose: 12.5 mg/kg/injection, schedule: Q01DX009 (ip), vehicle: saline with Tween-80 96 % of control | dose: 25.0 mg/kg/injection, schedule: Q01DX009 (ip), vehicle: saline with Tween-80 98 % of control | [1] 105 % of control | dose: 200.0 mg/kg/injection, schedule: Q04DX003 (ip), vehicle: saline with Tween-80 97 % of control | dose: 400.0 mg/kg/injection, schedule: Q04DX003 (ip), vehicle: saline with Tween-80 95 % of control

CN1CCN(CCCN2c3ccccc3Sc3ccc(Cl)cc32)CC1
inactive: dose: 0.19 mg/kg/injection, schedule: Q01DX009 (ip), vehicle: saline 111 % of control | dose: 0.39 mg/kg/injection, schedule: Q01DX009 (ip), vehicle: saline 97 % of control | dose: 0.78 mg/kg/injection, schedule: Q01DX009 (ip), vehicle: saline 100 % of control

CC1([CH2][Hg][I])CS(=O)(=O)CC(C)([CH2][Hg][I])O1 (stereo not drawn)
inactive: dose: 1.25 mg/kg/injection, schedule: Q01DX009 (ip), vehicle: saline sonified 97 % of control | dose: 2.0 mg/kg/injection, schedule: Q01DX009 (ip), vehicle: saline with Tween-80 100 % of control | dose: 2.5 mg/kg/injection, schedule: Q01DX009 (ip), vehicle: saline sonified 92 % of control | dose: 4.0 mg/kg/injection, schedule: Q01DX009 (ip), vehicle: saline sonified 102 % of control | dose: 4.0 mg/kg/injection, schedule: Q01DX009 (ip), vehicle: saline with Tween-80 94 % of control | dose: 8.0 mg/kg/injection, schedule: Q01DX009 (ip), vehicle: saline sonified 95 % of control | dose: 8.0 mg/kg/injection, schedule: Q01DX009 (ip), vehicle: saline with Tween-80 100 % of control | dose: 16.0 mg/kg/injection, schedule: Q01DX009 (ip), vehicle: saline sonified 90 % of control | dose: 16.0 mg/kg/injection, schedule: Q01DX009 (ip), vehicle: saline with Tween-80 100 % of control | dose: 32.0 mg/kg/injection, schedule: Q01DX009 (ip), vehicle: saline with Tween-80 94 % of control

N=C(N)Sc1ccccn1
inactive: [2] 95 % of control | dose: 12.5 mg/kg/injection, schedule: Q01DX009 (ip), vehicle: suspension in saline 98 % of control | [3] 97 % of control | dose: 25.0 mg/kg/injection, schedule: Q01DX009 (ip), vehicle: suspension in saline 100 % of control | [4] 100 % of control | dose: 50.0 mg/kg/injection, schedule: Q01DX009 (ip), vehicle: suspension in saline 92 % of control | [5] 98 % of control | dose: 100.0 mg/kg/injection, schedule: Q01DX009 (ip), vehicle: suspension in saline 92 % of control

CN1CCC=C(CN(c2ccccc2)c2ccccc2)C1
inactive: [3] 92 % of control | [4] 89 % of control | [5] 92 % of control

CN(C)CCCC1c2ccccc2Oc2ccc(C(F)(F)F)cc21 (stereo not drawn)
inactive: dose: 3.12 mg/kg/injection, schedule: Q01DX009 (ip), vehicle: saline 86 % of control | dose: 6.25 mg/kg/injection, schedule: Q01DX009 (ip), vehicle: saline 88 % of control | [2] 100 % of control | [3] 97 % of control

CN(C)c1ccc(/C=C2\C=Cc3ccccc32)cc1
inactive: dose: 50.0 mg/kg/injection, schedule: Q01DX009 (ip), vehicle: saline with Tween-80 92 % of control | dose: 100.0 mg/kg/injection, schedule: Q01DX009 (ip), vehicle: saline with Tween-80 89 % of control | dose: 200.0 mg/kg/injection, schedule: Q01DX009 (ip), vehicle: saline with Tween-80 92 % of control

CC1=C(C)C(=O)O[C@@H]([C@](C)(O)[C@]2(O)CC[C@@]3(O)[C@@H]4C[C@H]5O[C@]56[C@@H](O)C=CC(=O)[C@]6(C)[C@H]4CC[C@]23C)C1
inactive: dose: 2.0 mg/kg/injection, schedule: Q01DX005 (ip), vehicle: saline + alcohol 117 % of control | dose: 2.0 mg/kg/injection, schedule: Q01DX005 (iv), vehicle: saline + alcohol 99 % of control | dose: 4.0 mg/kg/injection, schedule: Q01DX001 (ip), vehicle: saline + alcohol 113 % of control | dose: 4.0 mg/kg/injection, schedule: Q01DX001 (iv), vehicle: saline + alcohol 103 % of control | dose: 4.0 mg/kg/injection, schedule: Q01DX005 (iv), vehicle: saline + alcohol 97 % of control | dose: 4.0 mg/kg/injection, schedule: Q01DX005 (oral), vehicle: saline + alcohol 103 % of control | dose: 4.0 mg/kg/injection, schedule: Q01DX009 (oral), vehicle: saline + alcohol 90 % of control | dose: 8.0 mg/kg/injection, schedule: Q01DX001 (ip), vehicle: saline + alcohol 113 % of control | dose: 8.0 mg/kg/injection, schedule: Q01DX001 (iv), vehicle: saline + alcohol 114 % of control | dose: 8.0 mg/kg/injection, schedule: Q01DX001 (oral), vehicle: saline + alcohol 97 % of control | dose: 8.0 mg/kg/injection, schedule: Q01DX005 (iv), vehicle: saline + alcohol 95 % of control | dose: 8.0 mg/kg/injection, schedule: Q01DX005 (oral), vehicle: saline + alcohol 103 % of control | dose: 8.0 mg/kg/injection, schedule: Q01DX009 (oral), vehicle: saline + alcohol 95 % of control | dose: 16.0 mg/kg/injection, schedule: Q01DX001 (iv), vehicle: saline + alcohol 92 % of control | dose: 16.0 mg/kg/injection, schedule: Q01DX001 (oral), vehicle: saline + alcohol 99 % of control | dose: 16.0 mg/kg/injection, schedule: Q01DX005 (ip), vehicle: saline + alcohol 116 % of control | dose: 16.0 mg/kg/injection, schedule: Q01DX005 (iv), vehicle: saline + alcohol 92 % of control | dose: 16.0 mg/kg/injection, schedule: Q01DX005 (oral), vehicle: saline + alcohol 104 % of control | dose: 16.0 mg/kg/injection, schedule: Q01DX009 (oral), vehicle: saline + alcohol 94 % of control | dose: 32.0 mg/kg/injection, schedule: Q01DX001 (ip), vehicle: saline + alcohol 116 % of control | dose: 32.0 mg/kg/injection, schedule: Q01DX001 (iv), vehicle: saline + alcohol 101 % of control | dose: 32.0 mg/kg/injection, schedule: Q01DX001 (oral), vehicle: saline + alcohol 103 % of control | dose: 32.0 mg/kg/injection, schedule: Q01DX005 (iv), vehicle: saline + alcohol 99 % of control | dose: 32.0 mg/kg/injection, schedule: Q01DX005 (oral), vehicle: saline + alcohol 90 % of control | dose: 32.0 mg/kg/injection, schedule: Q01DX009 (oral), vehicle: saline + alcohol 104 % of control | dose: 64.0 mg/kg/injection, schedule: Q01DX001 (iv), vehicle: saline + alcohol 105 % of control | dose: 64.0 mg/kg/injection, schedule: Q01DX001 (oral), vehicle: saline + alcohol 101 % of control | dose: 64.0 mg/kg/injection, schedule: Q01DX005 (oral), vehicle: saline + alcohol 97 % of control | dose: 64.0 mg/kg/injection, schedule: Q01DX009 (oral), vehicle: saline + alcohol 101 % of control | dose: 128.0 mg/kg/injection, schedule: Q01DX001 (oral), vehicle: saline + alcohol 105 % of control
